The source of these data is patent US11046691B1 (IDEAYA BIOSCIENCES, INC., priority 2018, dated 2021).

The term IC50 denotes the concentration needed to halve the response being measured. High values mean a need for much substance, low ones inhibition by little substance.

hMAT2A, sequence (P31153 whole entry): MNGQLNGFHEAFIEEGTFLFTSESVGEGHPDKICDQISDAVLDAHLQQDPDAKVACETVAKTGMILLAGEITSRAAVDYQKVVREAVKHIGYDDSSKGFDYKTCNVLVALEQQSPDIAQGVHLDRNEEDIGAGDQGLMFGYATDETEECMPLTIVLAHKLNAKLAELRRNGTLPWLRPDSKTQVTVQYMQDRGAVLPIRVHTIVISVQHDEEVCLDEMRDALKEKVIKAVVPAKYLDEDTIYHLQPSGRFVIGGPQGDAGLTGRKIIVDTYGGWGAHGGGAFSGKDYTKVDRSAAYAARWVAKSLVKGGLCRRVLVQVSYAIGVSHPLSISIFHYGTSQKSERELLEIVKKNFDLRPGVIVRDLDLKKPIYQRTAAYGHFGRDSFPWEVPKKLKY

One experiment has as its target hMAT2A (Homo sapiens (Human), UniProt P31153). The experiment is described as follows: Phosphate Sensor Fluorescence Assay (MAT2A enzyme inhibition). Type of experiment: biochemical. The following applies: L-methionine 500 uM, ATP 500 uM, class symbols. In a few lines:
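Recombinant MAT2A preincubated 15 min at room temperature with compound, then reacted 1 h at room temperature with 500 uM L-methionine and 500 uM ATP in Tris pH 7.5 buffer containing PNP/7-MEG.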
In turn, `CNc1nc(=O)n(-c2cccc(Br)c2)c2cc(Cl)ccc12` [Example 401, 1-(3-bromophenyl)-7-chloro-4-(methylamino)hydroquinazolin-2-one] registered an IC50 of 200 to 500 nM.

For `Cc1ncccc1-n1c(=O)nc(N)c2ccc(C(F)(F)F)nc21` [Example 263], the IC50 was under 200 nM.

Consider `CNc1nc(=O)n(-c2ccccc2)c2nc(C(F)(F)F)ccc12` [Example 184, 4-(methylamino)-1-phenyl-7-(trifluoromethyl)pyrido[2,3-d]-pyrimidin-2(1H)-one], for which the IC50 was under 200 nM.

Molecule `C[C@]1(Nc2nc(=O)n(-c3ccccc3Cl)c3nc(C(F)(F)F)ccc23)C[C@@H](O)C1` [Example 269, 1-(2-chlorophenyl)-4-(((1s,3s)-3-hydroxy-1-methylcyclobutyl)amino)-7-(trifluoromethyl)pyrido[2,3-d]pyrimidin-2(1H)-one] gave an IC50 of under 200 nM.

`O=c1[nH]c(=O)n(-c2ccccc2Cl)c2nc(C(F)(F)F)ccc12` [Example 388, 1-(2-chlorophenyl)-7-(trifluoromethyl)-1,3-dihydropyridino[2,3-d]pyrimidine-2,4-dione] showed an IC50 of under 200 nM.

In the case of `CNc1nc(=O)n(-c2ccccc2Br)c2cc(Cl)ccc12` [Example 225, 1-(2-bromophenyl)-7-chloro-4-(methylamino)quinazolin-2-one], the IC50 is under 200 nM.

Turning to `CNc1nc(=O)n(-c2cccc(C3CC3)c2)c2cc(Cl)ccc12` [Example 353, 7-chloro-1-(3-cyclopropylphenyl)-4-(methylamino)hydroquinazolin-2-one], the IC50 is under 200 nM.

In turn, `[2H]C([2H])([2H])Nc1nc(=O)n(-c2ccccc2Cl)c2cc(Cl)ccc12` [Example 347, 7-chloro-1-(2-chlorophenyl)-4-((methyl-d3)amino)quinazolin-2(1H)-one] had an IC50 of under 200 nM.

Take `CC(=O)Nc1nc(=O)n(-c2ccccc2)c2cc(Cl)ccc12` [Example 203, N-(7-chloro-2-oxo-1-phenyl-1,2-dihydroquinazolin-4-yl)acetamide]: the IC50 was 200 to 500 nM.

On to `COc1ccccc1-n1c(=O)nc(N2CC[C@@H](O)C2)c2ccc(Cl)cc21` [Example 151, 4-((3R)-3-hydroxypyrrolidin-1-yl)-7-chloro-1-(2-methoxyphenyl)hydro-quinazolin-2-one], for which the IC50 is under 200 nM.

On to `Nc1nc(=O)n(-c2ncccn2)c2cc(C(F)(F)F)ccc12` [Example 124, 4-amino-1-pyrimidin-2-yl-7-(trifluoro-methyl)hydroquinazolin-2-one], for which the IC50 is 500 to 1000 nM.

Turning to `CCc1cc(C2CC2)cc2c1c(NC)nc(=O)n2-c1ccccc1C` [Example 410, 7-cyclopropyl-5-ethyl-4-(methylamino)-1-(2-methylphenyl)hydroquinazolin-2-one], the IC50 was under 200 nM.

As to `N#Cc1cccc(-n2c(=O)nc(N3CC(O)C3)c3ccc(C(F)(F)F)cc32)c1` [Example 139, 3-[4-(3-hydroxyazetidinyl)-2-oxo-7-(trifluoromethyl)hydroquinazolinyl]-benzenecarbonitrile], the IC50 was under 200 nM.

In turn, `NC(=O)[C@@H]1CCCN1c1nc(=O)n(-c2ccccc2)c2cc(Cl)ccc12` [Example 240, (2S)-1-(7-chloro-2-oxo-1-phenylhydro-quinazolin-4-yl)pyrrolidine-2-carboxamide] showed an IC50 of 1000 to 10000 nM.

With `COc1nc(=O)n(-c2ncccn2)c2cc(C(F)(F)F)ccc12` [Example 120], the IC50 fell in the range of 1000 to 10000 nM.

In turn, `CNc1nc(=O)n(-c2ccccc2Br)c2cc(C3CC3)ccc12` [Example 351, 1-(2-bromophenyl)-7-cyclopropyl-4-(methylamino)hydroquinazolin-2-one] displayed an IC50 of under 200 nM.

In the case of `CNc1nc(=O)n(-c2cnccc2OC)c2nc(C(F)(F)F)ccc12` [Example 92, 1-(4-methoxypyridin-3-yl)-4-(methyl-amino)-7-(trifluoromethyl)pyrido[2,3-d]pyrimidin-2(1H)-one], the IC50 lay within 200 to 500 nM.

Molecule `CNc1nc(=O)n(-c2ccccc2OC)c2cc(Cl)ccc12` [Example 226, 7-chloro-1-(2-methoxyphenyl)-4-(methylamino)hydroquinazolin-2-one] showed a half-inhibitory concentration (IC50) of under 200 nM.

In turn, `O=c1nc(N2CCCC2)c2ccc(C(F)(F)F)nc2n1-c1ccccc1Cl` [Example 176, 1-(2-chlorophenyl)-4-(pyrrolictin-1-yl)-7-(trifluoromethyl)pyrido[2,3-d]pyrimidin-2(1H)-one] showed an IC50 of under 200 nM.

`Cc1ccccc1-n1c(=O)nc(N)c2ccc(C(F)(F)F)nc21` [Example 169, 4-amino-1-(2-methylphenyl)-7-(trifluoromethyl)pyrido[2,3-d]pyrimidin-2(1H)-one] came in with an IC50 of under 200 nM.

`O=c1nc(NCC(F)(F)F)c2ccc(C(F)(F)F)cc2n1-c1ccccc1` [Example 118]: the IC50 is under 200 nM.

As to `O=c1nc(N2CCCC2)c2ccc(C3CC3)cc2n1-c1ccccc1` [Example 386, 7-cyclopropyl-1-phenyl-4-pyrrolidin-1-ylhydroquinazolin-2-one], the IC50 was under 200 nM.

With `O=c1nc(N2CC[C@@H](O)C2)c2ccc(C(F)(F)F)cc2n1-c1ccccc1` [Example 145, 4-((3R)-3-hydroxypyrrolidinyl)-1-phenyl-7-(trifluoromethyl)hydro-quinazolin-2-one], the IC50 was under 200 nM.

Regarding `CNc1nc(=O)n(-c2ccc3[nH]cnc3c2)c2cc(Cl)ccc12` [Example 307, 1-benzimidazol-5-yl-7-chloro-4-(methyl-amino)hydroquinazolin-2-one], the IC50 was under 200 nM.

In the case of `Cc1ccccc1-n1c(=O)nc(N2CC[C@@H](O)C2)c2ccc(C(F)(F)F)cc21` [Example 128, 4-((3R)-3-hydroxypyrrolidin-1-yl)-1-(2-methylphenyl)-7-(trifluoromethyl)hydro-quinazolin-2-one], the IC50 was under 200 nM.

In turn, `O=c1[nH]c(=O)n(-c2cccc3[nH]ncc23)c2cc(Cl)ccc12` [Example 254, 1-(1H-indazol-4-yl)-7-chloro-1,3-dihydroquinazoline-2,4-dione] registered an IC50 of under 200 nM.

`O=c1nc(N2CC[C@@H](O)C2)c2ccc(C(F)(F)F)cc2n1-c1ccccc1Cl` [Example 395, 4-((3R)-3-hydroxypyrrolidin-1-yl)-1-(2-chlorophenyl)-7-(trifluoromethyl)hydro-quinazolin-2-one] returned an IC50 of under 200 nM.

Take `O=C(O)c1cccc(-n2c(=O)[nH]c(=O)c3ccc(Cl)cc32)c1` [Example 156, 3-(7-chloro-4-hydroxy-2-oxohydro-quinazolinyl)benzoic acid]: the IC50 lay within 1000 to 10000 nM.

`CNc1nc(=O)n(-c2cccc(C#N)c2C)c2cc(Cl)ccc12` [Example 173, 3-[7-chloro-4-(methylamino)-2-oxo-hydroquinazolinyl]-2-methylbenzene-carbonitrile]: the IC50 is under 200 nM.

`CNc1nc(=O)n(-c2ccccc2)c2cc(Cl)cc(OCC(F)(F)F)c12` [Example 350, 7-chloro-4-(methylamino)-1-phenyl-5-(2,2,2-trifluoroethoxy)hydroquinazolin-2-one] returned an IC50 of under 200 nM.

In turn, `CNc1nc(=O)n(-c2ncccn2)c2cc(C3CC3)ccc12` [Example 309, 7-cyclopropyl-4-(methylamino)-1-pyrimidin-2-ylhydroquinazolin-2-one] returned an IC50 of 1000 to 10000 nM.

The molecule `N#CCCNc1nc(=O)n(-c2ccccc2Cl)c2nc(C(F)(F)F)ccc12` [Example 278, 3-((1-(2-chlorophenyl)-2-oxo-7-(trifluoro-methyl)-1,2-dihydropyrido-[2,3-d]pyrimidin-4-yl)amino)-propanenitrile] showed an IC50 of under 200 nM.

As to `Nc1nc(=O)n(-c2ccccc2)c2cc(Cl)cc(Cl)c12` [Example 383, 4-amino-5,7-dichloro-1-phenyl-hydroquinazolin-2-one], the IC50 fell in the range of 500 to 1000 nM.

As to `CNc1nc(=O)n(-c2cccc(C(=O)O)c2)c2cc(Cl)ccc12` [Example 133, 3-[7-chloro-4-(methylamino)-2-oxo-hydroquinazolin-1-yl]benzoic acid], the IC50 was under 200 nM.

In turn, `[2H]C([2H])([2H])Nc1nc(=O)n(-c2ccccc2C)c2nc(C(F)(F)F)ccc12` [Example 272, 4-((methyl-d3)amino)-1-(2-methyl-phenyl)-7-(trifluoromethyl)pyrido[2,3-d]pyrimidin-2(1H)-one] had an IC50 of under 200 nM.

`CNc1nc(=O)n(-c2cccc(OC)n2)c2nc(C(F)(F)F)ccc12` [Example 91, 1-(6-methoxypyridin-2-yl)-4-(methylamino)-7-(trifluoromethyl)-pyrido[2,3-d]pyrimidin-2(1H)-one] came in with an IC50 of under 200 nM.

Staying with this experiment, now noted: L-methionine 500 uM, ATP 500 uM, numeric bound.
Consider `O=C1CCN1c1nc(=O)n(-c2ccccc2)c2cc(Cl)ccc12` [Example 206, 7-chloro-4-(2-oxoazetidin-1-yl)-1-phenylhydroquinazolin-2-one], for which the IC50 is over 10000 nM.

In turn, `O=c1[nH]c(=O)n(-c2ccccc2)c2cc(CO)ccc12` [Example 212, 7-(hydroxymethyl)-1-phenyl-1,3-dihydroquinazoline-2,4-dione] gave an IC50 of over 10000 nM.

Molecule `O=c1[nH]c(=O)n(-c2ccccc2Cl)c2nc(C(F)(F)F)ccc12` [Example 288, 1-(2-chlorophenyl)-4-hydroxy-7-(trifluoromethyl)hydropyridino[2,3-d]-pyrimidin-2-one] showed an IC50 of over 10000 nM.

With `COc1ccc(F)c(-n2c(=O)[nH]c(=O)c3ccc(Cl)cc32)c1` [Example 311, 7-chloro-1-(2-fluoro-5-methoxyphenyl)-quinazoline-2,4(1H,3H)-dione], the IC50 is over 10000 nM.

In turn, `O=c1[nH]c(=O)n(-c2nc3ccccc3s2)c2cc(Cl)ccc12` [Example 253, 1-benzothiazol-2-yl-7-chloro-1,3-dihydroquinazoline-2,4-dione] registered an IC50 of over 10000 nM.

`CNc1nc(=O)n(-c2ccccc2)c2cc(Cl)cc(OC3COC3)c12` [Example 202, 7-chloro-4-(methylamino)-5-oxetan-3-yloxy-1-phenylhydroquinazolin-2-one]: the IC50 is over 10000 nM.

`Cc1cnc2c(=O)[nH]c(=O)n(-c3ccccc3)c2c1` [Example 193, 7-methyl-1-phenylpyrido[3,2-d]-pyrimidine-2,4(1H,3H)-dione] displayed an IC50 of over 10000 nM.
